Laboratory results as given in patent US20250026745A1 (Bluejay Therapeutics, Inc., priority 2023, published 2025).
Read-outs that look alike come from different tables or passages of the source.

Experiments:
[1] = target: recombinant 17β-HSD13 protein (Homo sapiens (Human), UniProt Q7Z5P4); experiment: 17β-HSD13 biochemical assay (NAD+/NADH Glo chemiluminescence); conditions: 17β-HSD13 50 nM, NAD+ 10 mM, β-estradiol 20 μM, 2 hours room temperature
Summary of the method: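 Compounds preincubated 1 h at room temperature with 50 nM enzyme and 10 mM NAD+ (final) in 200 mM Tris pH 7.5, 0.01% Triton X-100, 0.02% BSA. Reaction started with 20 μM β-estradiol and run 2 hours at room temperature; NADH formation detected by NAD+/NADH-Glo chemiluminescence. IC50 from four-parameter logistic fit.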

[2] = Recovery of glucuronide Compound I-51 spiked into mouse liver tissue homogenate (30% ACN in water with 2% FA); format: in vitro ADME; conditions: parent Compound I-16 measured in I-51-spiked sample
Excerpt: Compound I-51, a glucuronide of compound I-16, was used to develop methodology to ensure the glucuronide metabolite of the phenol could be stabilized in liver tissue to glucuronidase and other enzymatic cleavage in order to determine accurate levels of parent:glucuronide in the liver tissue. A known amount of Compound I-51 was spiked into a gram of mouse liver tissue where 2% formic acid (FA) was used with 30% acetonitrile (ACN) in water to stop all enzymatic glucuronidase activity.
Comparison of Treatment on ‘30% ACN in Water with 2% FA’ Homogenate Buffer for Compound I-51:
1). Prepared the homogenate buffer ‘30% ACN in water with 2% FA’ (including […] Compound 1-51), then homogenized with the liver tissue together. Due to the ratio of 1:9 (1 g tissue with 9 mL buffer), the final concentration was 900 ng/mL.
2). An aliquot of 20 μL sample were taken for analysis. Compound I-51 was Added after Homogenate:
1). The liver tissue was homogenized with the buffer ‘30% ACN in water with 2% FA’, then 2 μL 18 µg/mL Compound I-51 was spiked in 38 μL liver homogenate, the final concentration was 900 ng/mL. 2). An aliquot of 20 μL sample were taken for analysis. […]
The amount of parent was measured under these conditions Compound I-16 after generating a standard curve for Compound I-16.

[3] = target: HEK293 cells expressing 17β-HSD13 (Homo sapiens (Human), UniProt Q7Z5P4); experiment: 17β-HSD13 cell-based assay (β-estradiol conversion, LC-MS/MS)
Chain of HEK293 cells expressing 17β-HSD13 (Q7Z5P4 20-300): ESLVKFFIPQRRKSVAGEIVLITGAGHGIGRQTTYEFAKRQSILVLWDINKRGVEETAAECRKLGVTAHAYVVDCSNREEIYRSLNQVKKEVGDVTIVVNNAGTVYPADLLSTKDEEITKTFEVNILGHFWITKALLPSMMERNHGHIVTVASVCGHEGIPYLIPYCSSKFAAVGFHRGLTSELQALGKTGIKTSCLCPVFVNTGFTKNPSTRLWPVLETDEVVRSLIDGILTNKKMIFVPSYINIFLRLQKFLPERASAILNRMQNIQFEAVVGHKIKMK
Method: HEK293 cells expressing 17β-HSD13 either stably or transiently were incubated with compounds for 60 min at 37° C. in a humidified incubator. After this first incubation step, β-estradiol was added to each well of the microtiter plate and incubated for 3 h at 37° C. in the humidified incubator. After treatment with β-Estradiol, 50 μL of supernatant was transferred to a 96-V plate containing 100 μL acetonitrile and centrifuged at 3900 rpm for 45 min. Finally, 50 μL of supernatant were taken for LC-MS/MS analysis. The chromatography part was run on a Xbridge 30 mm×2.1 mm column (Waters), at 40 degrees Celsius and a flow rate of 0.8 mL/min for 5 min, while the MS was done on a Q Exactive Orbitrap (Fisher Scientific) in Target SIM mode and negative polarity with a spray voltage of 3.5 kV. EC50 values were determined with GraphPad Prism®, where log-transformed concentration values and the inhibition data were fitted to a four-parameter logistic equation. Y=Bottom+(Top−Bottom)/(1+10^((Log EC50−X)*Hill Slope)). The original, % control, or % inhibition data are represented by Y along with their minimal (Bottom) and maximal (Top) values. The inhibitor concentration is represented by X, EC50 is the concentration at 50% maximal value, and Hill Slope is the slope factor.

[4] = cited from earlier work
[5] = HEK293 cells stably expressing 17β-HSD13 (footnote b), read-out: EC50, nM Stable
[6] = HEK293 cells transiently expressing 17β-HSD13 (footnote a), read-out: EC50, nM Transient

Chain of recombinant 17β-HSD13 protein (Q7Z5P4 20-300): as above

| Compound | IC50 [1] [nM] | Calculated Concentration (ng/mL) of parent ([2]; after homogenate) [ng/mL] | Calculated Concentration (ng/mL) of parent ([2]; before homogenate) [ng/mL] | EC50 [3, 5] [nM] | EC50 [3, 6] [nM] | glucuronidation / in vivo clearance [4] |
| --- | --- | --- | --- | --- | --- | --- |
| O=C1N(CC(F)(F)F)C(=O)C2(CC2)N1Cc1nnc(-c2ccc(F)c(O)c2Cl)s1 [Compound I-16, 4-((5-(2-chloro-4-fluoro-3-hydroxyphenyl)-1,3,4-thiadiazol-2-yl)methyl)-6-(2,2,2-trifluoroethyl)-4,6-diazaspiro[2.4]heptane-5,7-dione] | 12.9 ± 2.43 | 5.237 | 5.618 | 37.1 | 107 |  |
| CCn1c(=O)c(C)cn(Cc2ccc(-c3ccc(F)c(O)c3F)s2)c1=O [BI-3231] |  |  |  |  |  | prone to rapid glucuronidation on the phenol moiety leading to fast in vivo clearance |
| O=C1N([C@@H](c2ccc(-c3ccc(F)cc3)cc2F)C(F)(F)F)C(=O)C2(CC2)N1Cc1nnc(-c2ccc(F)c(O)c2F)s1 [Compound I-97, (S)-4-((5-(2,4-difluoro-3-hydroxyphenyl)-1,3,4-thiadiazol-2-yl)methyl)-6-(1-(3,4′-difluoro-[1,1′-biphenyl]-4-yl)-2,2,2-trifluoroethyl)-4,6-diazaspiro[2.4]heptane-5,7-dione] | 0.79 |  |  | 4.66 |  |  |
| O=C1N(C(c2ccc(F)cc2F)C(F)(F)F)C(=O)C2(CC2)N1Cc1nnc(-c2ccc(F)c(O)c2Cl)s1 (single isomer, unassigned) [Compound I-54A] | 0.857 ± 0.153 |  |  | 5.63 ± 0.961 |  |  |
| CCCN1C(=O)N(Cc2nnc(-c3ccc(F)c(O)c3F)s2)C2(CC2)C1=O [Compound I-4, 4-((5-(2,4-difluoro-3-hydroxyphenyl)-1,3,4-thiadiazol-2-yl)methyl)-6-propyl-4,6-diazaspiro[2.4]heptane-5,7-dione] | 10.6 ± 0.919 |  |  |  | 20.6 |  |
| CC(C)N1C(=O)N(Cc2nnc(-c3ccc(F)c(O)c3F)s2)C2(CC2)C1=O [Compound I-5, 4-((5-(2,4-difluoro-3-hydroxyphenyl)-1,3,4-thiadiazol-2-yl)methyl)-6-isopropyl-4,6-diazaspiro[2.4]heptane-5,7-dione] | 8.99 ± 0.322 |  |  |  | 42.2 |  |
| CCN1C(=O)N(Cc2nnc(-c3ccc(F)c(O)c3F)s2)C2(CC2)C1=O [Compound I-7, 4-((5-(2,4-difluoro-3-hydroxyphenyl)-1,3,4-thiadiazol-2-yl)methyl)-6-ethyl-4,6-diazaspiro[2.4]heptane-5,7-dione] | 16.6 ± 8.74 |  |  |  | 18.8 |  |
| O=C1N([C@@H](c2ccccc2)C(F)(F)F)C(=O)C2(CC2)N1Cc1nnc(-c2ccc(F)c(O)c2F)s1 [Compound I-99A, 4-[[5-(2,4-difluoro-3-hydroxy-phenyl)-1,3,4-thiadiazol-2-yl]methyl]-6-[(1S)-2,2,2-trifluoro-1-phenyl-ethyl]-4,6-diazaspiro[2.4]heptane-5,7-dione] | 1.17 ± 0.185 |  |  | 4.95 ± 0.0122 |  |  |
| O=C1N(CC23CC(C2)C3)C(=O)C2(CC2)N1Cc1nnc(-c2ccc(F)c(O)c2F)s1 [Compound I-6, 6-(bicyclo[1.1.1]pentan-1-ylmethyl)-4-((5-(2,4-difluoro-3-hydroxyphenyl)-1,3,4-thiadiazol-2-yl)methyl)-4,6-diazaspiro[2.4]heptane-5,7-dione] | 22.1 ± 2.18 |  |  |  | 165 |  |
| 6-cyclopropyl-4-[[5-(2,4-difluoro-3-hydroxy-phenyl)-1,3,4-thiadiazol-2-yl]methyl]-4,6-diazaspiro[2.4]heptane-5,7-dione [Compound I-41] | 4.15 |  |  | 18.9 |  |  |
| C[C@@H](c1ccccc1)N1C(=O)N(Cc2nnc(-c3ccc(F)c(O)c3F)s2)C2(CC2)C1=O [Compound I-83, (S)-4-((5-(2,4-difluoro-3-hydroxyphenyl)-1,3,4-thiadiazol-2-yl)methyl)-6-(1-phenylethyl)-4,6-diazaspiro[2.4]heptane-5,7-dione] | 2 ± 0.588 |  |  | 10.4 |  |  |
| O=C1N(Cc2ccccc2)C(=O)C2(CC2)N1Cc1nnc(-c2ccc(F)c(O)c2Cl)s1 [Compound I-35, 6-benzyl-4-((5-(2-chloro-4-fluoro-3-hydroxyphenyl)-1,3,4-thiadiazol-2-yl)methyl)-4,6-diazaspiro[2.4]heptane-5,7-dione] | 5.33 |  |  | 40.9 |  |  |
| O=C1N(Cc2ccc(Cl)cc2Cl)C(=O)C2(CC2)N1Cc1nnc(-c2ccc(F)c(O)c2Cl)s1 [Compound I-34, 4-((5-(2-chloro-4-fluoro-3-hydroxyphenyl)-1,3,4-thiadiazol-2-yl)methyl)-6-(2,4-dichlorobenzyl)-4,6-diazaspiro[2.4]heptane-5,7-dione] | 4.6 |  |  | 119 |  |  |
| O=C1N(CC(F)(F)F)C(=O)C2(CC2)N1Cc1nnc(-c2ccc(F)c(O)c2F)s1 [Compound I-15, 4-((5-(2,4-difluoro-3-hydroxyphenyl)-1,3,4-thiadiazol-2-yl)methyl)-6-(2,2,2-trifluoroethyl)-4,6-diazaspiro[2.4]heptane-5,7-dione] | 8.07 ± 1.77 |  |  | 40.9 ± 25 |  |  |
| CC(C)(C)N1C(=O)N(Cc2nnc(-c3ccc(F)c(O)c3Cl)s2)C2(CC2)C1=O [Compound I-50, 6-(tert-butyl)-4-((5-(2-chloro-4-fluoro-3-hydroxyphenyl)-1,3,4-thiadiazol-2-yl)methyl)-4,6-diazaspiro[2.4]heptane-5,7-dione] | 4.6 |  |  | 35.1 ± 6.03 |  |  |
| O=C1N(C(c2ccc(F)cc2F)C(F)(F)F)C(=O)C2(CC2)N1Cc1nnc(-c2ccc(F)c(O)c2Cl)s1 (stereo not shown) [Compound I-54, 4-[[5-(2-chloro-4-fluoro-3-hydroxy-phenyl)-1,3,4-thiadiazol-2-yl]methyl]-6-[1-(2,4-difluorophenyl)-2,2,2-trifluoro-ethyl]-4,6-diazaspiro[2.4]heptane-5,7-dione] | 1.53 |  |  | 10.7 |  |  |
| CCN1C(=O)N(Cc2nnc(-c3cc(O)cc(C(F)(F)F)c3)s2)C2(CC2)C1=O [Compound I-22, 6-ethyl-4-((5-(3-hydroxy-5-(trifluoromethyl)phenyl)-1,3,4-thiadiazol-2-yl)methyl)-4,6-diazaspiro[2.4]heptane-5,7-dione] | 41 ± 3.9 |  |  | 144 |  |  |
| O=C1N(C2CCC2)C(=O)C2(CC2)N1Cc1nnc(-c2ccc(F)c(O)c2F)s1 [Compound I-30, 6-cyclobutyl-4-((5-(2,4-difluoro-3-hydroxyphenyl)-1,3,4-thiadiazol-2-yl)methyl)-4,6-diazaspiro[2.4]heptane-5,7-dione] | 7.08 |  |  | 35.9 |  |  |
| O=C1N([C@@H](c2ccccc2)C(F)(F)F)C(=O)C2(CC2)N1Cc1nnc(-c2ccc(F)c(O)c2Cl)s1 [Compound I-52, 4-[[5-(2-chloro-4-fluoro-3-hydroxy-phenyl)-1,3,4-thiadiazol-2-yl]methyl]-6-[(1S)-2,2,2-trifluoro-1-phenyl-ethyl]-4,6-diazaspiro[2.4]heptane-5,7-dione] | 1.09 ± 0.23 |  |  | 6.41 ± 1.23 |  |  |
